In patent US20040013649A1, “Cancer vaccines and methods of using the same” (Inex Pharmaceuticals Corporation, priority 2002, published 2004):
Entries after “also recorded” stand apart in the source; their conditions may differ. [5mC] = 5-methylcytosine

Columns and labels:
dendritic cells = test: activation of dendritic cells (CD86 co-expression); assay type: in vivo, ICR mice; conditions: lipid encapsulated, single i.v. injection 20 mg/kg, versus PBS control = 100%
Description: ICR mice were immunized with a single intravenous injection of encapsulated oligonucleotides at a dose of 20 mg/kg and the control ICR mouse was injected with PBS. […] Each of these markers are specific to dendritic cells though they may represent different cell sub-populations. In each of FIGS. 4 and 5 the control was plotted as equivalent to 100% and the effect of ODN1m for each backbone configuration was plotted as a percentage of that control.
On collection of the samples the cells were first analyzed by flow cytometry for the co-expression of CD86, which indicates cell activation, and the dendritic cell phenotype markers CD11c and DEC205. The percentage of activated dendritic cells was plotted against a PBS control equivalent to 100%. […] Similar results are shown when measuring DEC205 positive dendritic cells in FIG. 5 panels.

B16/BL6 murine melanoma = test: therapeutic anti-tumor efficacy, B-16 melanoma tumor model; assay type: in vivo, C57BI/6 mice; conditions: lipid encapsulated (DSPC:CHOL:DODAP:PEGCer14); 20 mg/kg ODN i.v. every other day from day 4
Description: Anti-tumor efficacy induced by intravenous tail immunization was assessed in C57BI/6 (8 animals per group) in a therapeutic immunization model. Animals were challenged with a subcutaneous injection of 3.0×10^5 […] B16/BL6 murine melanoma expressing tumor cells on Day-0. Mice were then treated intravenously every other day starting on day 4 for 14 days at a dose of 20 mg/kg ODN. Mice were monitored every other day to assess tumor growth and weight gain. Control mice were injected with HBS on the same schedule described above. Oligonucleotides were encapsulated in a lipid particle having a lipid composition of DSPC: CHOL: DODAP:PEGCer14 each in a ratio of 25:45:20:10. Results from this efficacy experiments are detailed in FIGS. 16 and 17. Day 0 on each of the Figures is the day each animal was challenged with the tumor.

B16 cell target = test: CTL response to B16 cell target after multiple epitope immunization; assay type: in vivo, C57BL/6 mice; conditions: encapsulated PS-ODN 1m (POPC:Chol:DODMA:PEG-DMG) with TRP2 and Gp100 peptides or B16 lysate; 3 injections
Description: Targeting multiple antigens and MHC alleles might be achieved by using multiple recombinant antigen mixtures of synthetic peptide epitopes. To improve the immune response against these multi-epitope antigens several adjuvants are under assay. This experiment employs encapsulated PS-ODN 1 m using POPC:Chol:DODMA:PEG-DMG (25:45:20:10 molar ratio) in combination with two murine melanoma antigens TRP2 (H2Kb, […]) and Gp100 (H2Db, […]). C57BL/6 mice were injected 3 times with either each antigen, or both, in the presence of encapsulated PS-ODN 1 m. As positive control we used dendritic cells known to be potent in inducing CTL responses. B16 lysate containing multiple epitopes was also assayed either with ODN1m or DC for the ability to induce multi-epitope immunity. Immune response was assessed by the ability of CD8+ T cells to mediate cytotoxicity against tumor cells in an antigen-specific manner.

E.G7-OVA = test: prophylactic efficacy of OVA / OVA257-264 vaccination, E.G7-OVA model; assay type: in vivo, C57/BL6 mice; conditions: LNA (encapsulated) forms; FIG. 35
Description: Vaccinations. B6 mice were vaccinated subcutaneously (SC) with […] per injection. Dosing schedules were either q7dx2 or q4dx4 and are indicated in the individual figure legends. CFA mixtures were very viscous and had to be given with a larger gauge syringe. For humoral studies, a prime (day 0) and boost (day 14) strategy was used and blood samples were collected at various times by tail nicking.
Efficacy studies. E.G7-OVA or EL-4 thymoma cell lines were used throughout the study. These cells were cultured in vitro according to established methods. For tumor studies, 2.5×106 E.G7-OVA cells were injected subcutaneously in […] of PBS containing 1% FCS. Tumor measurements were made by repeated perpendicular measurements of tumor dimensions and using the formula: […]
Full-length OVA and the immunodominant cytotoxic T lymphocyte (CTL) peptide epitope (OVA257-264) were used to evaluate cell mediated immune responses and the prophylactic and therapeutic efficacy of OVA vaccination against the E.G7-OVA transfected cell line, using LNA both as an adjuvant and as the basis for a cancer vaccine formulation. LNA formulations for this experiment were prepared using DSPC:Chol:DODAP:PEGCer14 at a ration of 25:45:20:10
The anti-tumor activity of OVA and OVA257-264 were examined against the murine thymoma cell line, E.G7-OVA, implanted subcutaneously (SC) in C57/BL6 mice. […] Given the activity observed with the protein or peptide alone, this dose and schedule represents a useful model to evaluate adjuvants designed to boost the immune response against OVA and/or OVA257-264.
To examine LNA formulations as adjuvants, the impact of three variables were evaluated on vaccination and efficacy in the prophylactic E.G7-OVA model: (1) the activity of free vs. encapsulated ODN 1, (2) phosphodiester (PO) vs phosphorothioate (PS) ODN, and (3) full-length OVA protein vs single-epitope peptide OVA257-264 (FIGS. 30A and B). In this set of studies, free and encapsulated ODN 1 was simply mixed with antigen and administered SC near the nape of the neck. ODN and antigen doses in these studies were […], respectively.

[1] = system: EG.7 Ova expressing tumor cells; test: prophylactic anti-tumor efficacy, EG7-OVA tumor model, q7d×3; assay type: in vivo, C57BI/6 mice
Description: Efficacy studies. E.G7-OVA or EL-4 thymoma cell lines were used throughout the study. These cells were cultured in vitro according to established methods. […] Tumor measurements were made by repeated perpendicular measurements of tumor dimensions and using the formula: […]
Anti-tumor efficacy induced by subcutaneous immunization was assessed in C57BI/6 (5 animals per group) in a prophylactic immunization model. Mice were immunized subcutaneously with 3 injections on a q7d×3 dosing regimen on Days 0, 7 and 14 at a dose of 100 μg oligonucleotide and 20 μg of OVA antigen dose. […] Mice were monitored 3 times weekly to assess tumor growth and weight gain. Control mice were injected with one of PBS or HBS and […] of OVA antigen on the same schedule described above. Oligonucleotides were encapsulated in a lipid particle having a lipid composition of one of POPC: CHOL: DODAP:PEGCer14 or DSPC: CHOL: DODAP:PEGCer14 each in a ratio of 25:45:20:10. All comparisons of methylated and unmethylated oligonucleotides were done using like lipid particles. Results from these efficacy experiments are detailed in FIGS. 12-15, 18-21, and 25-28. Day 0 on each of the Figures is the day each animal was challenged with the tumor.

“ODN1m: 5′-TAAZGTTGAGGGGCAT-3, SEQ ID NO: 4, Z = methylated cytosine (DNA TAACGTTGAGGGGCAT; DNA, [5mC] at 4, backbone not given here; tested with both phosphodiester and phosphorothioate backbones)” was tested, and the “CD86 expression on dendritic cells” value (dendritic cells) was “induced CD86 expression on CD11c positive dendritic cells; also recorded: more active than the unmethylated counterpart ODN1”, the “reduction of tumor volume” value (B16/BL6 murine melanoma) was “increased its efficacy in reducing tumor volume” and the CTL response (B16 cell target) was “a CTL response was raised against both antigens”. For the same substance, the “efficacy of ODN sequences” value (E.G7-OVA) was “strongest responses”, the “reduction in tumor growth” value ([1]; free ODN, 100 μg ODN + 20 μg OVA s.c. q7d×3, tumor challenge Day 21) was “approached the rate of the control animal” and the “reduction in tumor growth” value ([1]; lipid encapsulated ODN, PO backbone, 100 μg ODN + 20 μg OVA s.c. q7d×3) was “therapeutic efficacy was greatest with the methylated version 32 days after transplantation”. For the same substance, the “reduction in tumor growth” value ([1]; lipid encapsulated ODN, PS backbone, 100 μg ODN + 20 μg OVA s.c. q7d×3) was “equal in therapeutic efficacy in comparison to the unmethylated ODN1; also recorded: improved efficacy”, the “percentage of tumor free animals” value ([1]; lipid encapsulated ODN, FIG. 19A) was “greater percentage of tumor free animals” and the “number of animals remaining in the study” value ([1]; lipid encapsulated ODN, FIG. 19B) was “essentially identical throughout the study”. The “survival rate of mice” value ([1]; lipid encapsulated ODN, versus unmethylated counterpart) was “increase in the survival rate”.
